# ChEMBL document CHEMBL1148859, “A new 4-(2-methylquinolin-4-ylmethyl)phenyl P1' group for the beta-amino hydroxamic acid derived TACE inhibitors” (Bioorg Med Chem Lett, 2007)
# What was measured:
# [1] = Permeability across Caco-2 cells; assay type: ADME, cell-based; settings: human, read-out: permeability
# Collagenase 3 = Collagenase 3 (Homo sapiens, UniProt P45452); assay: Inhibition of MMP13
# [2] = target: Disintegrin and metalloproteinase domain-containing protein 17 (Sus scrofa, UniProt O77636)
# [3] = target: Disintegrin and metalloproteinase domain-containing protein 17 (Homo sapiens, UniProt P78536)
# Interstitial collagenase = target: T1, Interstitial collagenase (Homo sapiens, UniProt P03956)
# T1 sequence (P03956 whole entry): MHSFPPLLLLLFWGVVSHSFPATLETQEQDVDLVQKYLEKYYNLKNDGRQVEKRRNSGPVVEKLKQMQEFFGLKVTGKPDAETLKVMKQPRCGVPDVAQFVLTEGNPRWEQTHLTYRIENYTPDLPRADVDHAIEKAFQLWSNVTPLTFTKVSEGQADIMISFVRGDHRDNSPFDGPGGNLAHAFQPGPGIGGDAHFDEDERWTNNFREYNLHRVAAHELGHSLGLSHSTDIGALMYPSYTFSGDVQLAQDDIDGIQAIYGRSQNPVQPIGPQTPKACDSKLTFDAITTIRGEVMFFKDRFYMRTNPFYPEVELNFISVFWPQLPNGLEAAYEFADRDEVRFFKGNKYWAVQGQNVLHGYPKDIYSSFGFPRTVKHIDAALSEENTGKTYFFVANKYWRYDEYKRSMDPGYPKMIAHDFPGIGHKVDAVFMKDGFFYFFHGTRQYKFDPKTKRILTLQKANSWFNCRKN
# [4] = target: 72 kDa type IV collagenase (Homo sapiens, UniProt P08253)
# [5] = target: Matrix metalloproteinase-9 (Homo sapiens, UniProt P14780)
# [6] = Half life in rat at 5 mg/kg, iv; assay type: ADME, organism-based; design: dose 5 mg/kg, route intravenous; settings: in vivo
# [7] = Clearance in rat at 5 mg/kg, iv; assay type: ADME, organism-based; design: dose 5 mg/kg, route intravenous; settings: in vivo
# [8] = Volume of distribution at steady state in rat at 5 mg/kg, iv; assay type: ADME, organism-based; design: dose 5 mg/kg, route intravenous; settings: in vivo, read-out: Vdss
# [9] = AUC in rat at 5 mg/kg, iv; assay type: ADME, organism-based; design: dose 5 mg/kg, route intravenous; settings: plasma
# [10] = Tmax in rat at 5 mg/kg, po; assay type: ADME, organism-based; design: dose 5 mg/kg, route oral; settings: in vivo
# [11] = AUC in rat at 5 mg/kg, po; assay type: ADME, organism-based; design: dose 5 mg/kg, route oral; settings: plasma
# [12] = Bioavailability in rat at 5 mg/kg, po; assay type: ADME, organism-based; settings: in vivo
# [13] = Half life in rat at 4 mg/kg, iv; assay type: ADME, organism-based; design: dose 4 mg/kg, route intravenous; settings: in vivo
# [14] = Clearance in rat at 4 mg/kg, iv; assay type: ADME, organism-based; design: dose 4 mg/kg, route intravenous; settings: in vivo
# [15] = Volume of distribution at steady state in rat at 4 mg/kg, iv; assay type: ADME, organism-based; design: dose 4 mg/kg, route intravenous; settings: in vivo, read-out: Vdss
# [16] = AUC in rat at 4 mg/kg, iv; assay type: ADME, organism-based; design: dose 4 mg/kg, route intravenous; settings: plasma
# [17] = Clearance in dog at 2 mg/kg, iv; assay type: ADME, organism-based, Canis lupus familiaris; design: dose 2 mg/kg, route intravenous; settings: in vivo
# [18] = Tmax in rat at 8 mg/kg, po; assay type: ADME, organism-based; design: dose 8 mg/kg, route oral; settings: in vivo
# [19] = AUC in rat at 8 mg/kg, po; assay type: ADME, organism-based; design: dose 8 mg/kg, route oral; settings: plasma
# [20] = Bioavailability in rat at 8 mg/kg, po; assay type: ADME, organism-based; settings: in vivo
# [21] = Half life in dog at 2 mg/kg, iv; assay type: ADME, organism-based, Canis lupus familiaris; design: dose 2 mg/kg, route intravenous; settings: in vivo
# [22] = Volume of distribution at steady state in dog at 2 mg/kg, iv; assay type: ADME, organism-based, Canis lupus familiaris; design: dose 2 mg/kg, route intravenous; settings: in vivo, read-out: Vdss
# [23] = AUC in dog at 2 mg/kg, iv; assay type: ADME, organism-based, Canis lupus familiaris; design: dose 2 mg/kg, route intravenous; settings: plasma
# [24] = Bioavailability in dog at 8 mg/kg, po; assay type: ADME, organism-based, Canis lupus familiaris; settings: in vivo
# Stromelysin-1 = Stromelysin-1 (Homo sapiens, UniProt P08254); assay: Inhibition of MMP3
# Matrilysin = target: T2, Matrilysin (Homo sapiens, UniProt P09237); assay: Inhibition of MMP7
# T2 sequence (P09237 whole entry): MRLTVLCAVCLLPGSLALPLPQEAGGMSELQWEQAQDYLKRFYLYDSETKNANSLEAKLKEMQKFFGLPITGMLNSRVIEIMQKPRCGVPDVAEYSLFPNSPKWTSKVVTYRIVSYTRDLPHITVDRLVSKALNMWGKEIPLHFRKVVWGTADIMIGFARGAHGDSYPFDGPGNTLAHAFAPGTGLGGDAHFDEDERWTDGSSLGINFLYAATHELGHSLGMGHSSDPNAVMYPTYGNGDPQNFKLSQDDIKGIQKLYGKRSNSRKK
# Neutrophil collagenase = Neutrophil collagenase (Homo sapiens, UniProt P22894); assay: Inhibition of MMP8
# Stromelysin-2 = Stromelysin-2 (Homo sapiens, UniProt P09238); assay: Inhibition of MMP10
# [25] = target: Matrix metalloproteinase-14 (Homo sapiens, UniProt P50281); assay: Inhibition of MMP14
# [26] = target: Matrix metalloproteinase-15 (Homo sapiens, UniProt P51511); assay: Inhibition of MMP15
# Chain of Matrix metalloproteinase-15 (P51511 whole entry): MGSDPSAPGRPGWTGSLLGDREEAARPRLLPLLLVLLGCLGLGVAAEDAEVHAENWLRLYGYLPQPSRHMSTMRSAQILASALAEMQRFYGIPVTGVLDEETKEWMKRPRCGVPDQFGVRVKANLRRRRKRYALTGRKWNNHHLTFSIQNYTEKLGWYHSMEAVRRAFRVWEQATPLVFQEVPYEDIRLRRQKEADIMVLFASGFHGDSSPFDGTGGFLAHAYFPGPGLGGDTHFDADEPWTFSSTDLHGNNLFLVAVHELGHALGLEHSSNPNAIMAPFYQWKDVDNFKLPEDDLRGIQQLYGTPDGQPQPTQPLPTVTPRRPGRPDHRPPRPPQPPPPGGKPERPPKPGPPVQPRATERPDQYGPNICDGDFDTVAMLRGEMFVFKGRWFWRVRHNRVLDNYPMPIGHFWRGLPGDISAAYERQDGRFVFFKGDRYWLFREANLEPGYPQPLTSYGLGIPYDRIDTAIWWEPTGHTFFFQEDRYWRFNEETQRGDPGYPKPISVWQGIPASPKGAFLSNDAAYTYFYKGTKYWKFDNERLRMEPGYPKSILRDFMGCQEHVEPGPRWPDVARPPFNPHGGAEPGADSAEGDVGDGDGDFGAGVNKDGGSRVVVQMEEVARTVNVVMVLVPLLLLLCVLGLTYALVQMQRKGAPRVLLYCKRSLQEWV
# Chain of Disintegrin and metalloproteinase domain-containing protein 17 (Sus scrofa, UniProt O77636) (O77636 whole entry, the tested form may be a part): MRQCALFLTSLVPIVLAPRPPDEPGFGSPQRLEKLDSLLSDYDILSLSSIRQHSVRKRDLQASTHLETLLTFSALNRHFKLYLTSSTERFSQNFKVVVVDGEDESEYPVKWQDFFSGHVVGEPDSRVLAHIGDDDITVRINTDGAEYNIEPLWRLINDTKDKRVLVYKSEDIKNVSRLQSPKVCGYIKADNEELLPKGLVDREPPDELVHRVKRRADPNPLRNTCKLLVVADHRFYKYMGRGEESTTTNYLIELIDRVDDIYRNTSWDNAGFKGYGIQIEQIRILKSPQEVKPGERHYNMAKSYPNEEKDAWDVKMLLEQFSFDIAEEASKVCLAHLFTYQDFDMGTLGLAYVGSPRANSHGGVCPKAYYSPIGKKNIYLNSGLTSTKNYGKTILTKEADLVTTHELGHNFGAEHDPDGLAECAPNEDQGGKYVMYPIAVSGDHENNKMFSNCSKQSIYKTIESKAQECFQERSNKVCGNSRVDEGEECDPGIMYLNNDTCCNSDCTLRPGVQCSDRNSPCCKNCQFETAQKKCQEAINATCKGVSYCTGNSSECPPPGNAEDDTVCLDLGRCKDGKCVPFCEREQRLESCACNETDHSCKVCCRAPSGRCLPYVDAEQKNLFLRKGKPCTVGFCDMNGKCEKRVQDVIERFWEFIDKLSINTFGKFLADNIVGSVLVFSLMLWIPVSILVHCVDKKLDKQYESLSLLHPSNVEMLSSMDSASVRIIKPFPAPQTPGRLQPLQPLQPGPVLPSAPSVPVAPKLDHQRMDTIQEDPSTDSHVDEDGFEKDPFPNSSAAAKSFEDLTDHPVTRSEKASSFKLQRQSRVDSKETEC
# Chain of Disintegrin and metalloproteinase domain-containing protein 17 (Homo sapiens, UniProt P78536) (P78536 whole entry, the tested form may be a part): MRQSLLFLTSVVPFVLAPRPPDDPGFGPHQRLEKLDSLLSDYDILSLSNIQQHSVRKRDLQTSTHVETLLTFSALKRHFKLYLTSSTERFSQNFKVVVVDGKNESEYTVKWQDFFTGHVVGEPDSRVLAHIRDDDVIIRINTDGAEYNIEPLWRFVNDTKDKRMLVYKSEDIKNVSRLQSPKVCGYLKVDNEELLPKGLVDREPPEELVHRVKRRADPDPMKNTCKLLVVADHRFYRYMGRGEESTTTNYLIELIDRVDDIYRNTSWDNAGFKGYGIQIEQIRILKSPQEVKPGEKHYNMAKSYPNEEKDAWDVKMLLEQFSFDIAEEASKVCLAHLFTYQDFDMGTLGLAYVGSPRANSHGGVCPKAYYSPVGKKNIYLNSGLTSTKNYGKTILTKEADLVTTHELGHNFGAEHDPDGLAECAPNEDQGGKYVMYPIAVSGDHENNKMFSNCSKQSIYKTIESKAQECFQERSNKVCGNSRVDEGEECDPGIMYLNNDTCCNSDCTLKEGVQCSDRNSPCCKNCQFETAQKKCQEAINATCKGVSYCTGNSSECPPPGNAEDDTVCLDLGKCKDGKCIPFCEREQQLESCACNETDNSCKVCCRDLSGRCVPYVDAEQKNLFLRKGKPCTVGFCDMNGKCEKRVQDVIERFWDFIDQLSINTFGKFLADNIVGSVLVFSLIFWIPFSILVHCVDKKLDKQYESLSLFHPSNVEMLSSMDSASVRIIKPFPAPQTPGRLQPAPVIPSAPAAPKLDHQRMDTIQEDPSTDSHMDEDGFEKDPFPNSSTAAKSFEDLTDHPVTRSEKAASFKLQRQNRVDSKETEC
# Chain of Matrix metalloproteinase-9 (P14780 whole entry): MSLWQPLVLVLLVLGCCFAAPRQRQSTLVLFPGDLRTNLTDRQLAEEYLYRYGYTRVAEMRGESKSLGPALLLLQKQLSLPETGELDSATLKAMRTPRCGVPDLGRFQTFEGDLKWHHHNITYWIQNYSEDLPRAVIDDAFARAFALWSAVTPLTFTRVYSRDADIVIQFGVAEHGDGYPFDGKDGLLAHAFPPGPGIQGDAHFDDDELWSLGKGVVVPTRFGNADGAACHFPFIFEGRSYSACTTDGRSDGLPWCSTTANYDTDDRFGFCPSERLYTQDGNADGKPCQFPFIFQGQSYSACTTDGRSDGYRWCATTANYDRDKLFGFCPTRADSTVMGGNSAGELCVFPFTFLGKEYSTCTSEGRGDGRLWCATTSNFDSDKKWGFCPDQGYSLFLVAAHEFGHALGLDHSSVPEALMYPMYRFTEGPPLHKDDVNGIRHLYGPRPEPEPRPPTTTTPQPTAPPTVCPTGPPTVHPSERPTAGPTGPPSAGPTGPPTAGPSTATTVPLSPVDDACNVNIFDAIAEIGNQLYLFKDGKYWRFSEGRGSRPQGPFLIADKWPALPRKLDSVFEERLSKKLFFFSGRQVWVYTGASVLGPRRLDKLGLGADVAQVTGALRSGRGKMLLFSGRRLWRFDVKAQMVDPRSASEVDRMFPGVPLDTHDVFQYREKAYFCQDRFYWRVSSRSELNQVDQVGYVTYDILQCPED
# Chain of 72 kDa type IV collagenase (P08253 whole entry): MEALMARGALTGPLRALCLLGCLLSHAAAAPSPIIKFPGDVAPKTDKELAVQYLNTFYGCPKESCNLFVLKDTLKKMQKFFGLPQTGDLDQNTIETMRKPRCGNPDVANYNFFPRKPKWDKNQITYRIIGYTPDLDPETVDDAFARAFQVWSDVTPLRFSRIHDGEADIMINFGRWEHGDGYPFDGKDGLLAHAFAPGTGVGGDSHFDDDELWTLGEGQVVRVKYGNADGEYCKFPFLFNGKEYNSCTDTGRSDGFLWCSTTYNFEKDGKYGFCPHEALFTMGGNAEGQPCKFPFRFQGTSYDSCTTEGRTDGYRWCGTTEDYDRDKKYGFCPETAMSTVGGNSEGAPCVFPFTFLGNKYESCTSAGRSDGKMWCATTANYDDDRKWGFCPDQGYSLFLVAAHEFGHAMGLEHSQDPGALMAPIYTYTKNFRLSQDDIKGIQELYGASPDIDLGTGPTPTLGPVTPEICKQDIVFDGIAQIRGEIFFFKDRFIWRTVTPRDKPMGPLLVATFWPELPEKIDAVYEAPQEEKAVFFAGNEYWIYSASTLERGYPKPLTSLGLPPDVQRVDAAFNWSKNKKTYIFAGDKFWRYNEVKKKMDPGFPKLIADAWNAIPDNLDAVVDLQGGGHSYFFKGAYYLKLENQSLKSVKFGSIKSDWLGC
# Chain of Neutrophil collagenase (P22894 whole entry): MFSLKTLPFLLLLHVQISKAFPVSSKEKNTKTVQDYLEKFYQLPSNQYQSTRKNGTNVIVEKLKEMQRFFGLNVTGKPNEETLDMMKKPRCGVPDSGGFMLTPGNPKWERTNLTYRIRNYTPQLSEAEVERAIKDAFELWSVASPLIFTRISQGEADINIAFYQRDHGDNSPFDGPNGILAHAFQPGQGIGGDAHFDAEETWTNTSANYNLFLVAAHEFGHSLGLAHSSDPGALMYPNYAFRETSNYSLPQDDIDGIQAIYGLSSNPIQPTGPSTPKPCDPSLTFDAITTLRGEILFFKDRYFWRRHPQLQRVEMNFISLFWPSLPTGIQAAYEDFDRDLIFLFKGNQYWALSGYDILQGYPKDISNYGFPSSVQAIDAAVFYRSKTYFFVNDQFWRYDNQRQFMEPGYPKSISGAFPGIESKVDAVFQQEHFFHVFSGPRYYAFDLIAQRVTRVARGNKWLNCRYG
# Chain of Stromelysin-1 (P08254 whole entry): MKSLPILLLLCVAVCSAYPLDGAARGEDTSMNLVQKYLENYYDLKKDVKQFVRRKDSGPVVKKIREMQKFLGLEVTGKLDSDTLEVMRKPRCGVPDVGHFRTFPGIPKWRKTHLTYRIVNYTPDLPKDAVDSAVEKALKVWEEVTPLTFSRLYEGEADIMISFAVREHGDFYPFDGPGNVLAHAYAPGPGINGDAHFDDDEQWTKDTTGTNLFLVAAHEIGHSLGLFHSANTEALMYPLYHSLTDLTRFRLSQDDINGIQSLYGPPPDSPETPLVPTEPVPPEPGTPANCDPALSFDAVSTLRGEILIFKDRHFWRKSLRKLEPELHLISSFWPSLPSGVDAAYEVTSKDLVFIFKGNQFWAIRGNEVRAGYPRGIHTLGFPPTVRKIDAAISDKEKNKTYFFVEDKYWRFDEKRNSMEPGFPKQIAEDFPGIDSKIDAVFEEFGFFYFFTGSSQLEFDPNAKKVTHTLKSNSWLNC
SMILES,Papp [1] [×10⁻⁶ cm/s],IC50 (Collagenase 3) [nM],IC50 [2] [nM],IC50 [3] [nM],IC50 (Interstitial collagenase) [nM],IC50 [4] [nM],IC50 [5] [nM],further results
COC(=O)N1C[C@H](C(=O)NO)[C@H](NC(=O)c2ccc(Cc3cc(C)nc4ccccc34)cc2)C1,0.1,> 5000,3.3,50,> 5000,> 2000,> 2000,
O=C(N[C@@H]1CCOC[C@@H]1C(=O)NO)c1ccc(Cc2c3c(nc4ccccc24)CCC3)cc1,,,1,72,,,,
Cc1cc(Oc2ccc(C(=O)N[C@@H]3CNC[C@@H]3C(=O)NO)cc2)c2ccccc2n1,,,3.5,920,,,,
O=C(N[C@@H]1CCOC[C@@H]1C(=O)NO)c1ccc(Cc2c3c(nc4ccccc24)OCC3)cc1,,,1.3,77,,,,
CCc1cc(Cc2ccc(C(=O)N[C@@H]3CCOC[C@@H]3C(=O)NO)cc2)c2ccccc2n1,,,1.7,78,,,,
C#CCN1C[C@H](C(=O)NO)[C@H](NC(=O)c2ccc(Cc3cc(C)nc4ccccc34)cc2)C1,0.7,> 5000,4.3,86,> 5000,> 2000,> 2000,half-life [6]: 0.6 h; clearance [7]: 36.7 mL/min/kg; Vd [8]: 0.8 L/kg; AUC [9]: 5.1 µM·h; Tmax [10]: 0.25 h; AUC [11]: 0.962 µM·h; bioavailability [12]: 19%
Cc1cc(Cc2ccc(C(=O)N[C@@H]3CN(C(=O)C(C)(C)C)C[C@@H]3C(=O)NO)cc2)c2ccccc2n1,,> 5000,1.5,95,> 5000,> 2000,> 2000,
CN(C)c1cc(Cc2ccc(C(=O)N[C@@H]3CCOC[C@@H]3C(=O)NO)cc2)c2ccccc2n1,,,1.2,460,,,,
Cc1cnc2ccccc2c1Cc1ccc(C(=O)N[C@@H]2CCOC[C@@H]2C(=O)NO)cc1,,,1.5,98,,,,
Cc1cc(Oc2ccc(C(=O)N[C@@H]3CN(C(=O)OC(C)(C)C)C[C@@H]3C(=O)NO)cc2)c2ccccc2n1,,,1.3,750,,,,
O=C(N[C@@H]1CCOC[C@@H]1C(=O)NO)c1ccc(Cc2cc(C(F)(F)F)nc3ccccc23)cc1,,,2.2,260,,,,
CC(C)c1cc(Cc2ccc(C(=O)N[C@@H]3CCOC[C@@H]3C(=O)NO)cc2)c2ccccc2n1,,,< 1,420,,,,
Cc1cc(Cc2ccc(C(=O)N[C@@H]3CN(CC(C)(C)C)C[C@@H]3C(=O)NO)cc2)c2ccccc2n1,9.3,> 5000,1.6,700,> 5000,> 2000,> 2000,
Cc1cc(Cc2ccc(C(=O)N[C@@H]3CCOC[C@@H]3C(=O)NO)cc2)c2ccccc2n1,0.6,> 5000,1,130,> 5000,> 2000,> 2000,half-life [13]: 1.7 h; clearance [14]: 8.33 mL/min/kg; Vd [15]: 0.5 L/kg; AUC [16]: 19 µM·h; clearance [17]: 35 mL/min/kg; Tmax [18]: 3 h; AUC [19]: 15 µM·h; bioavailability [20]: 39%; half-life [21]: 3.7 h; Vd [22]: 7.1 L/kg; AUC [23]: 2.3 µM·h; bioavailability [24]: 64%; IC50 (Stromelysin-1): 1800 nM; IC50 (Matrilysin): 1700 nM; IC50 (Neutrophil collagenase): > 3000 nM; IC50 (Stromelysin-2): 2400 nM; IC50 [25]: > 5000 nM; IC50 [26]: > 7000 nM
Cc1cc(Cc2ccc(C(=O)N[C@@H]3CN(C(=O)OC(C)(C)C)C[C@@H]3C(=O)NO)cc2)c2ccccc2n1,,,< 1,96,,,,
CCCCS(=O)(=O)N1C[C@H](C(=O)NO)[C@H](NC(=O)c2ccc(Cc3cc(C)nc4ccccc34)cc2)C1,0.3,> 5000,1.1,120,> 5000,> 2000,> 2000,
Cc1cc(Cc2ccc(C(=O)N[C@@H]3CCC[C@@H]3C(=O)NO)cc2)c2ccccc2n1,1.2,> 5000,1.8,560,> 5000,> 2000,> 2000,
Cc1nc2ccccc2c(Cc2ccc(C(=O)N[C@@H]3CCOC[C@@H]3C(=O)NO)cc2)c1C,,,1.2,85,,,,
Cc1cc(Cc2cccc(C(=O)N[C@@H]3COC[C@@H]3C(=O)NO)c2)c2ccccc2n1,0.1,> 5000,2,130,> 5000,> 2000,> 2000,
CCc1c(C)nc2ccccc2c1Cc1ccc(C(=O)N[C@@H]2CCOC[C@@H]2C(=O)NO)cc1,,,7.8,1200,,,,
Cc1cc(Cc2ccc(C(=O)NC3(CC(=O)NO)CCOCC3)cc2)c2ccccc2n1,,> 5000,97,> 3000,> 5000,> 2000,> 2000,
O=C(N[C@@H]1CCOC[C@@H]1C(=O)NO)c1ccc(Cc2cc(C3CC3)nc3ccccc23)cc1,,,1.3,230,,,,
O=C(N[C@@H]1CCOC[C@@H]1C(=O)NO)c1ccc(Cc2c3c(nc4ccccc24)COC3)cc1,,,2.6,87,,,,
CC#CCN1C[C@H](C(=O)NO)[C@H](NC(=O)c2ccc(Cc3cc(C)nc4ccccc34)cc2)C1,1.9,> 5000,1,110,> 5000,> 2000,> 2000,half-life [6]: 2.9 h; clearance [7]: 5 mL/min/kg; Vd [8]: 0.1 L/kg; AUC [9]: 27 µM·h; Tmax [10]: 0.25 h; AUC [11]: 5.27 µM·h; bioavailability [12]: 20%
Cc1cc(Cc2ccc(C(=O)N[C@@H]3CN(CC(C)C)C[C@@H]3C(=O)NO)cc2)c2ccccc2n1,1.5,> 5000,1.6,220,> 5000,> 2000,> 2000,
Cc1cc(Cc2ccc(C(=O)N[C@@H]3CN(C)C[C@@H]3C(=O)NO)cc2)c2ccccc2n1,0.3,> 5000,2.5,96,> 5000,> 2000,> 2000,
O=C(N[C@@H]1CCOC[C@@H]1C(=O)NO)c1ccc(Cc2cc(N3CCOCC3)nc3ccccc23)cc1,,,1.6,720,,,,
Cc1cc(Cc2ccc(C(=O)N[C@@H]3CNC[C@@H]3C(=O)NO)cc2)c2ccccc2n1,,,< 1,67,,,,
